Like-named read-outs stand apart in the source and are kept apart here.
Experiments:
[1] = cited from earlier work
[2] = Oxidation (decay) of psilocin when exposed to air, own data
[3] = Isoelectric point / maximum stability pH; assay type: physicochemical
Experimental: The pH of the partially concentrated extract of Example 1, which was an aqueous extract, was adjusted to pH 4.0 (+/−0.5) by adding 2 M phosphoric acid and centrifuged for 15 minutes at 3000 g to remove any solid precipitate. The pH of 4 corresponds to the isoelectric point of psilocybin, and psilocin's polarity is such that it is partitioned onto the resin, thus allowing effective binding of the psychoactive alkaloids psilocybin and psilocin to the macroporous resin. Norbaeocystin and baeocystin are phosphorylated and behave in the same way as psilocybin. The supernatant obtained was loaded onto a column of Amberlite® XAD4, a non-ionic macroporous resin (50.34 g of dry resin) at a flow rate of 2 bed volumes per hour, to allow components in the supernatant to be adsorbed onto the macroporous resin. After all 2.5 L of the extract was loaded onto the column of macroporous resin, the column was washed in a single pass with 5 bed volumes of reverse osmosis water at room temperature. This was followed by elution with 5 bed volumes of 5% ethanol (by weight), again at room temperature. Finally, the column was washed in a single pass with 5 bed volumes of 100% ethanol. The elution was performed at room temperature. Each of these three fractions was collected separately. The particular order for the washing steps and the elution was selected to be in the order of the polarity of the solvents. […]

Structure (SMILES) | solubility ([1]; in acetone) | solubility ([1]; in ethanol) | solubility ([1]; in isopropanol) | solubility ([1]; in methanol) | solubility ([1]; in water) | decay (oxidation of psilocin) ([2]; at 20 hours when shielded from light) | decay (oxidation of psilocin) ([2]; moist and/or high light environment, after 5 hours) | decay (oxidation of psilocin) ([2]; moist and/or high light environment, within 30 minutes) | maximum stability pH [3]
CN(C)CCc1c[nH]c2cccc(O)c12 [Psilocin, psilocin] | not soluble | not soluble | not soluble | soluble | soluble | 40-60% | 25% | about 10% | 4
CN(C)CCc1c[nH]c2cccc(OP(=O)(O)O)c12 [Psilocybin, psilocybin] | not soluble | not soluble | not soluble | soluble | soluble |  |  |  | 

Reference: patent US11298388B2, “Psychoactive alkaloid extraction and composition with controlled dephosphorylation” (PSILO SCIENTIFIC LTD, priority 2020, dated 2022)
